The results in this text go back to article PMC7915724 (2021).

Holding throughout (assay): SPR
Assay [1] concerns biotin-Hairpin (duplex DNA) (DNA, hairpin, HEG (hexaethylene glycol) linker between 10 and 11) TATAGCTATATATAGCTATA
The following applies: 100 mM KCl; 20 mM Tris-HCl pH 7.4, 25 °C; tested up to 50 μM.

In assay [2] the test system is biotin-Py24 (VEGF i-motif) (DNA, i motif) GACCCCGCCCCCGGCCCGCCCCGG
The following applies: 100 mM KCl; 20 mM MES pH 5.5, 0.05% Tween-20, 25 °C; tested up to 50 μM.

Assay [3] concerns biotin-Pu24 (VEGF G-quadruplex) (DNA, G4) CCGGGGCGGGCCGGGGGCGGGGTC
The settings on record: 100 mM KCl; 20 mM Tris-HCl pH 7.4, 25 °C; tested up to 50 μM.

In assay [4] the test system is biotin-Py24 (VEGF i-motif) (DNA, i motif) GACCCCGCCCCCGGCCCGCCCCGG
The settings on record: 100 mM KCl, 20 mM MES pH 5.5, 0.05% Tween-20, 25 °C.

Regarding `CC1(C)CC[C@]2(C(=O)NCCNC(=O)c3ccccc3Nc3ccccc3)CC[C@]3(C)C(=CC[C@@H]4[C@@]5(C)CC[C@H](O)C(C)(C)[C@@H]5CC[C@]43C)[C@@H]2C1`, the KD in assay [1], in assay [2] and in assay [3] was greater than 50 µM each time.

As for `COC(=O)[C@]12CCC(C)(C)C[C@H]1C1=CC[C@@H]3[C@@]4(C)C=C(C(=O)O)C(=O)C(C)(C)[C@@H]4CC[C@@]3(C)[C@]1(C)CC2`, the dissociation constant KD in assay [4] (tested up to 50 μM), in assay [1] and in assay [3] was greater than 50 µM in each case.

Take `CC1(C)CC[C@]2(C(=O)NCc3cn(Cc4ccc(C(F)(F)F)cc4)nn3)CC[C@]3(C)C(=CC[C@@H]4[C@@]5(C)CC[C@H](O)C(C)(C)[C@@H]5CC[C@]43C)[C@@H]2C1`: the equilibrium dissociation constant (KD) in assay [2] was greater than 50 µM.

Molecule `COC(=O)[C@]12CCC(C)(C)C[C@H]1[C@H]1C(=O)C[C@@H]3[C@@](C)(CCC(=O)NCCc4cccs4)[C@H](C(C)(C)O)CC[C@@]3(C)[C@]1(C)CC2` showed a KD in assay [2] greater than 50 µM.

Consider `CC1(C)CC[C@]2(C(=O)NCc3cn(CCC(=O)O)nn3)CC[C@]3(C)C(=CC[C@@H]4[C@@]5(C)CC[C@H](O)C(C)(C)[C@@H]5CC[C@]43C)[C@@H]2C1`, for which the KD in assay [4] was 13.0 µM; in assay [1] it was greater than 50 µM; in assay [3] it was greater than 50 µM.

For `CC1(C)CC[C@]2(C(=O)NCc3cn(CCCN4CCCC4)nn3)CC[C@]3(C)C(=CC[C@@H]4[C@@]5(C)CC[C@H](O)C(C)(C)[C@@H]5CC[C@]43C)[C@@H]2C1`, the KD in assay [2] is greater than 50 µM.

In assay [2], `CC1(C)CC[C@]2(C(=O)NCc3cn(CCCN4CCOCC4)nn3)CC[C@]3(C)C(=CC[C@@H]4[C@@]5(C)CC[C@H](O)C(C)(C)[C@@H]5CC[C@]43C)[C@@H]2C1` returned a dissociation constant KD greater than 50 µM.

On to `CC1(C)CC[C@]2(C(=O)NCc3cn(-c4ncccn4)nn3)CC[C@]3(C)C(=CC[C@@H]4[C@@]5(C)CC[C@H](O)C(C)(C)[C@@H]5CC[C@]43C)[C@@H]2C1`, for which the KD is 12.3 µM in assay [4], greater than 50 µM in assay [1] and greater than 50 µM in assay [3].

In the case of `CC1(C)CC[C@]2(C(=O)N3CCN(c4ncccn4)CC3)CC[C@]3(C)C(=CC[C@@H]4[C@@]5(C)CC[C@H](O)C(C)(C)[C@@H]5CC[C@]43C)[C@@H]2C1`, the dissociation constant (KD) in assay [1], in assay [2] and in assay [3] was greater than 50 µM each time.

In the case of `CC(=O)OC[C@H]1O[C@@H](n2cc(CNC(=O)[C@]34CCC(C)(C)C[C@H]3C3=CC[C@@H]5[C@@]6(C)CC[C@H](O)C(C)(C)[C@@H]6CC[C@@]5(C)[C@]3(C)CC4)nn2)[C@H](OC(C)=O)[C@@H](OC(C)=O)[C@@H]1OC(C)=O`, the equilibrium dissociation constant (KD) in assay [2] is greater than 50 µM.

For the molecule `CC1(C)CC[C@]2(C(=O)N3CCN(C(=O)Cn4cnc5[nH]c(=O)[nH]c(=O)c54)CC3)CC[C@]3(C)C(=CC[C@@H]4[C@@]5(C)CC[C@H](O)C(C)(C)[C@@H]5CC[C@]43C)[C@@H]2C1`, the dissociation constant KD in assay [1], in assay [2] and in assay [3] was greater than 50 µM throughout.

Take `COC(=O)[C@]12CCC(C)(C)C[C@H]1[C@H]1C(=O)C[C@@H]3[C@@](C)(CCC(=O)Nc4ccc(OC)cc4)[C@H](C(C)(C)O)CC[C@@]3(C)[C@]1(C)CC2`: the dissociation constant KD in assay [2] is greater than 50 µM.

Turning to `CC1(C)CC[C@]2(C(=O)N3CCN(c4cccc(C(F)(F)F)c4)CC3)CC[C@]3(C)C(=CC[C@@H]4[C@@]5(C)CC[C@H](O)C(C)(C)[C@@H]5CC[C@]43C)[C@@H]2C1`, the KD in assay [1], in assay [2] and in assay [3] was greater than 50 µM in each case.

In turn, `COC(=O)[C@]12CCC(C)(C)C[C@H]1C1=CC[C@@H]3[C@@]4(C)C=C(C(=O)NCCCN5CCCC5)C(=O)C(C)(C)[C@@H]4CC[C@@]3(C)[C@]1(C)CC2` came in with a KD in assay [2] greater than 50 µM.

Consider `CC1(C)CC[C@]2(C(=O)N3CCN(c4ccc(F)cc4F)CC3)CC[C@]3(C)C(=CC[C@@H]4[C@@]5(C)CC[C@H](O)C(C)(C)[C@@H]5CC[C@]43C)[C@@H]2C1`, for which the KD in assay [1], in assay [2] and in assay [3] was greater than 50 µM throughout.

As to `COC(=O)[C@]12CCC(C)(C)C[C@H]1C1=CC[C@@H]3[C@@]4(C)C=C(C(=O)NCCCc5ccccc5)C(=O)C(C)(C)[C@@H]4CC[C@@]3(C)[C@]1(C)CC2`, the KD in assay [2] is greater than 50 µM.

As to `COC(=O)[C@]12CCC(C)(C)C[C@H]1C1=CC[C@@H]3[C@@]4(C)C=C(C(=O)NCCc5ccc(C(F)(F)F)cc5)C(=O)C(C)(C)[C@@H]4CC[C@@]3(C)[C@]1(C)CC2`, the KD in assay [2] was greater than 50 µM.

Take `CCN(CC)CCNC(=O)C1=C[C@]2(C)[C@H]3CC=C4[C@@H]5CC(C)(C)CC[C@]5(C(=O)OC)CC[C@@]4(C)[C@]3(C)CC[C@H]2C(C)(C)C1=O`: the KD in assay [4] (tested up to 50 μM), in assay [1] and in assay [3] was greater than 50 µM in each case.

In the case of `COC(=O)[C@]12CCC(C)(C)C[C@H]1[C@H]1C(=O)C[C@@H]3[C@@](C)(CCC(=O)Nc4ccc(OC(F)(F)F)cc4)[C@H](C(C)(C)O)CC[C@@]3(C)[C@]1(C)CC2`, the KD in assay [2] was greater than 50 µM.

For the molecule `COC(=O)[C@]12CCC(C)(C)C[C@H]1[C@H]1C(=O)C[C@@H]3[C@@](C)(CCC(=O)NCCCN4CCOCC4)[C@H](C(C)(C)O)CC[C@@]3(C)[C@]1(C)CC2`, the KD was 31.3 µM in assay [4], greater than 50 µM in assay [1] and greater than 50 µM in assay [3].

`CC1(C)CC[C@]2(C(=O)NCc3cn(CCN4CCCC4)nn3)CC[C@]3(C)C(=CC[C@@H]4[C@@]5(C)CC[C@H](O)C(C)(C)[C@@H]5CC[C@]43C)[C@@H]2C1`: in assay [2], the equilibrium dissociation constant (KD) is greater than 50 µM.

For the molecule `Cc1cn(CC(=O)N2CCN(C(=O)[C@]34CCC(C)(C)C[C@H]3C3=CC[C@@H]5[C@@]6(C)CC[C@H](O)C(C)(C)[C@@H]6CC[C@@]5(C)[C@]3(C)CC4)CC2)c(=O)[nH]c1=O`, the KD in assay [1], in assay [2] and in assay [3] was greater than 50 µM throughout.

For `CC1(C)CC[C@]2(C(=O)N3CCC(N4CCCCC4)CC3)CC[C@]3(C)C(=CC[C@@H]4[C@@]5(C)CC[C@H](O)C(C)(C)[C@@H]5CC[C@]43C)[C@@H]2C1`, the equilibrium dissociation constant (KD) in assay [4] (tested up to 50 μM), in assay [1] and in assay [3] was greater than 50 µM throughout.

Consider `CC1(C)CC[C@]2(C(=O)NCCc3c[nH]cn3)CC[C@]3(C)C(=CC[C@@H]4[C@@]5(C)CC[C@H](O)C(C)(C)[C@@H]5CC[C@]43C)[C@@H]2C1`, for which the KD in assay [4] was 12.1 µM; in assay [1], greater than 50 µM; in assay [3], greater than 50 µM.

`CC1(C)CC[C@]2(C(=O)NCc3cn(CCN4CCOCC4)nn3)CC[C@]3(C)C(=CC[C@@H]4[C@@]5(C)CC[C@H](O)C(C)(C)[C@@H]5CC[C@]43C)[C@@H]2C1`: the KD in assay [2] was greater than 50 µM.

In the case of `COC(=O)[C@]12CCC(C)(C)C[C@H]1[C@H]1C(=O)C[C@@H]3[C@@](C)(CCC(=O)NCCCn4ccnc4)[C@H](C(C)(C)O)CC[C@@]3(C)[C@]1(C)CC2`, the KD in assay [4] was 21.1 µM; in assay [1], greater than 50 µM; in assay [3], greater than 50 µM.

Take `CC1(C)CC[C@]2(C(=O)NCc3cn(Cc4nc5ccccc5[nH]4)nn3)CC[C@]3(C)C(=CC[C@@H]4[C@@]5(C)CC[C@H](O)C(C)(C)[C@@H]5CC[C@]43C)[C@@H]2C1`: the dissociation constant (KD) in assay [4] was 10.6 µM; in assay [1], greater than 50 µM; in assay [3], greater than 50 µM.

In the case of `CC1(C)CC[C@]2(C(=O)NCc3cn([C@@H]4O[C@H](CO)[C@@H](O)[C@H](O)[C@H]4O)nn3)CC[C@]3(C)C(=CC[C@@H]4[C@@]5(C)CC[C@H](O)C(C)(C)[C@@H]5CC[C@]43C)[C@@H]2C1`, the KD is 12.0 µM in assay [4], greater than 50 µM in assay [1] and greater than 50 µM in assay [3].

On to `CC1(C)CC[C@]2(C(=O)N3CCN(c4ccccn4)CC3)CC[C@]3(C)C(=CC[C@@H]4[C@@]5(C)CC[C@H](O)C(C)(C)[C@@H]5CC[C@]43C)[C@@H]2C1`, for which the equilibrium dissociation constant (KD) in assay [1], in assay [2] and in assay [3] was greater than 50 µM throughout.

For `CC1(C)CC[C@]2(C(=O)NCc3cn(CCCc4ccccc4)nn3)CC[C@]3(C)C(=CC[C@@H]4[C@@]5(C)CC[C@H](O)C(C)(C)[C@@H]5CC[C@]43C)[C@@H]2C1`, the dissociation constant KD in assay [1], in assay [2] and in assay [3] was greater than 50 µM throughout.

`COC(=O)[C@]12CCC(C)(C)C[C@H]1[C@H]1C(=O)C[C@@H]3[C@@](C)(CCC(=O)Nc4ccc(F)cc4)[C@H](C(C)(C)O)CC[C@@]3(C)[C@]1(C)CC2` yielded a KD in assay [2] greater than 50 µM.

Regarding `CC1(C)CC[C@]2(C(=O)NCc3cn(Cc4ccccc4)nn3)CC[C@]3(C)C(=CC[C@@H]4[C@@]5(C)CC[C@H](O)C(C)(C)[C@@H]5CC[C@]43C)[C@@H]2C1`, the KD in assay [1], in assay [2] and in assay [3] was greater than 50 µM throughout.

`COc1ccccc1N1CCN(C(=O)[C@]23CCC(C)(C)C[C@H]2C2=CC[C@@H]4[C@@]5(C)CC[C@H](O)C(C)(C)[C@@H]5CC[C@@]4(C)[C@]2(C)CC3)CC1`: the KD in assay [1], in assay [2] and in assay [3] was greater than 50 µM in each case.

With `COC(=O)[C@]12CCC(C)(C)C[C@H]1[C@H]1C(=O)C[C@@H]3[C@@](C)(CCC(=O)N4CCN(c5ccc(F)cc5F)CC4)[C@H](C(C)(C)O)CC[C@@]3(C)[C@]1(C)CC2`, the KD in assay [2] is greater than 50 µM.

Consider `CN(C)CCn1cc(CNC(=O)[C@]23CCC(C)(C)C[C@H]2C2=CC[C@@H]4[C@@]5(C)CC[C@H](O)C(C)(C)[C@@H]5CC[C@@]4(C)[C@]2(C)CC3)nn1`, for which the dissociation constant KD in assay [2] and in assay [3] was greater than 50 µM throughout.
